The subject of test [1] is hepatitis B virus (HBV) ayw strain. In words: HBV replication assay in HepG2-2.2.15 cells (TaqMan PCR of secreted HBV DNA). The format is cell-based. The note with it: 10 micrograms per ml; HepG2-2.2.15, 6 days; combination 0.95 mole peptide 1 and 1.05 mole peptide 2. (Quantitative PCR measures a nucleic acid by following its amplification.)
The subject of a further test is murine spleen cells. In words: Th1/Th2 cytokine profiling assay. The test is classed as cell-based, Balb/c mice. The settings on record: 10 micrograms per ml; Ovalbumin-restimulated murine spleen cells, 72 hours.
Test [2] deals with Primary Human endothelial cells (HUVEC). Put plainly: Endothelial cell migration assay. The test is classed as cell-based. The settings on record: 10 micrograms per ml, 22 hours. As to the method:
Thereafter, designated concentration of testing peptides—10 micrograms per ml—was added in duplicate wells.

The subject of another test is HUVEC. In words: Endothelial tube formation assay. The format is cell-based, human. The settings on record: 10 micrograms per ml, 20 hours, combination 1.10 mole:0.90 mole. From the text: Positive control was vehicle only.
The test system of another test is A549 cells. In words: Apoptosis prevention assay (C2 ceramide, Annexin-5). The test is classed as cell-based, human. The note with it: 10 micrograms per ml, 30 min pretreatment, combination 0.95:1.05 mole.
A further test has as its system HCMV strain AD169. In words: HCMV plaque formation assay in MRC-5 cells. The note with it: 10 micrograms per ml, 7-10 days.

Ends that are not written are not given here.

Text for murine spleen cells: The Balb/c mice (originated in 1923, it is a popular strain and is used in many different research disciplines. Also classified as an inbred from the production of 20 or more successive brother-sister matings, the Balb/c mouse is albino and small in size) were immunized on Days 1, 15, and 29 with Ovalbumin (Ovalbumin is the main protein found in egg white, commonly used to stimulate an immunological reaction in test animals) in PBS (5 micrograms/injection). On day 50, spleens of the mice were harvested (3 weeks after last boost with Ovalbumin). Cells were cultured (2×10^5/well in triplicate) and incubated with culture medium or test peptides—10 micrograms per ml—for 30 min. Thereafter, additional Ovalbumin was added to the cells at 10 micrograms/ml for in vitro restimulation of the cells. 72 hours later, cell supernatants were harvested and assayed using the Becton Dickinson Mouse Th1/Th2 Cytokine CBA Kit.

Regarding `CC(C)C[C@H](NC(=O)CNC(=O)[C@H](Cc1ccc(O)cc1)NC(=O)[C@H](CO)NC(=O)[C@H](Cc1c[nH]c2ccccc12)NC(=O)[C@H](Cc1cnc[nH]1)NC(=O)[C@@H]1CCC(=O)N1)C(=O)N[C@@H](CCCNC(=N)N)C(=O)N1CCC[C@H]1C(=O)NCC(N)=O` [Peptide 1], the “inhibition of HBV replication as compared to the virus control infection” value in test [1] amounted to 30.4%. Further, in the test with murine spleen cells, the “change of the production of TNF-alpha” value is given as “did not significantly change”, the “production of IFN-γ (decreased by %)” value was “did not significantly change”, the “production of IL-2 (induced by %)” value is on record as 43.6% and the “production of IL-4 (decreased by %)” value worked out at 65.9%. Further, the “production of IL-5 (decreased by %)” value in the test with murine spleen cells is recorded as 44.1%. Besides, in test [2] (combination 1.10 mole:0.90 mole), the “inhibition of the migration of human endothelial cells” value is recorded as 39%. In addition, in the test with HUVEC, the “inhibition of the tube formation of human endothelial cells” value is listed as 6%. Also, the “reduction of the ceramide-induced apoptosis on human lung cells” value in the test with A549 cells stood at 27.05%. Besides, the “inhibition of HCMV plaque formation as compared to the virus control” value in the test with HCMV strain AD169 was “did not inhibit”.

Consider “Met-Gln-Met-Lys-Lys-Val-Leu-Asp-Ser-OH (MQMKKVLDS-OH) [Peptide 2]”, for which the “inhibition of HBV replication as compared to the virus control infection” value in test [1] is “no effect”. For the same molecule, in the test on murine spleen cells, the “change of the production of TNF-alpha” value was “did not significantly change”, the “production of IFN-γ (decreased by %)” value came to 27.5%, the “production of IL-2 (induced by %)” value is given as “did not significantly change” and the “production of IL-4 (decreased by %)” value is on record as “did not significantly change”. Besides, the “production of IL-5 (decreased by %)” value in the test with murine spleen cells was 38.8%. Besides, the “increase of the migration of endothelial cells” value in test [2] worked out at 16%. In the test on HUVEC, the “inhibition of the tube formation of human endothelial cells” value was 4%. Also, the “reduction of the ceramide-induced apoptosis on human lung cells” value with A549 cells was “did not reduce”. In addition, the “inhibition of HCMV plaque formation as compared to the virus control” value in the test with HCMV strain AD169 is given as “did not inhibit”.

These data come from patent US8349805B2, “Use of Gonadorelin as a therapeutic agent” (priority 2007, dated 2013).
